What all share (assay type): cell-based
Assay [1] concerns the target T1, CFTR (Homo sapiens, UniProt P13569, DEL508-508).
T1 construct: human bronchial epithelial (HBE) cells derived from CF subjects heterozygous for F508del; endogenous in cells; host or cells: primary human bronchial epithelial cells from CF subjects (F508del/MF-HBE)
In words: HBE assay: Ussing chamber assay of CFTR-mediated short-circuit currents (F508del/MF-HBE, with 1 μM Ivacaftor). The following applies: F508del/MF-HBE cells, 18-24 hours, 20% human serum; for EC50: range of concentrations with 1 μM Ivacaftor; for HBE Max Activity: with 1 μM Ivacaftor, compared to known Vertex corrector with 18 μM Tezacaftor and 1 μM Ivacaftor; for HBE Activity at 10 μM: single fixed concentration of 10 μM with 1 μM Ivacaftor. Here is the method:
1. Ussing Chamber Assay of CFTR-mediated short-circuit currents
Ussing chamber experiments were performed using human bronchial epithelial (HBE) cells derived from CF subjects heterozygous for F508del and a minimal function CFTR mutation (F508del/MF-HBE) and cultured as previously described (Neuberger T, Burton B, Clark H, Van Goor F Methods Mol Biol 2011:741:39-54). After four days the apical media was removed, and the cells were grown at an air liquid interface for >14 days prior to use.
To isolate the CFTR-mediated short-circuit (ISC) current, F508del/MF-HBE grown on Costar® Snapwell™ cell culture inserts were mounted in an Ussing chamber and the transepithelial ISC was measured under voltage-clamp recording conditions (Vhold=0 mV) at 37° C. The basolateral solution contained (in mM) 145 NaCl, 0.83 K2HPO4, 3.3 KH2PO4, 1.2 MgCl2, 1.2 CaCl2), 10 Glucose, 10 HEPES (pH adjusted to 7.4 with NaOH) and the apical solution contained (in mM) 145 NaGluconate, 1.2 MgCl2, 1.2 CaCl2), 10 glucose, 10 HEPES (pH adjusted to 7.4 with NaOH) and 30 μM amiloride to block the epithelial sodium channel. Forskolin (20 μM) was added to the apical surface to activate CFTR, followed by apical addition of a CFTR inhibitor cocktail consisting of BPO, GlyH-101, and CFTR inhibitor 172 (each at 20 μM final assay concentration) to specifically isolate CFTR currents. The CFTR-mediated ISC (μA/cm^2) for each condition was determined from the peak forskolin response to the steady-state current following inhibition.
2. Identification of Corrector Compounds
The activity of the CFTR corrector compounds on the CFTR-mediated ISC was determined in Ussing chamber studies as described above. The F508del/MF-HBE cell cultures were either incubated with the corrector compounds at a range of concentrations in combination with 1 μM Ivacaftor or were incubated with the corrector compounds at a single fixed concentration of 10 μM in combination with 1 μM Ivacaftor for 18-24 hours at 37° C. and in the presence of 20% human serum. The concentration of corrector compounds with 1 μM Ivacaftor during the 18-24 hours incubations was kept constant throughout the Ussing chamber measurement of the CFTR-mediated ISC to ensure compounds were present throughout the entire experiment.

Assay [2] deals with T2, CFTR (Homo sapiens, UniProt P13569). In words: Membrane Potential Dye, Enteroid Assay B. The note with it: for EC50: read-out: Ent. B EC50. Put shortly:
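Human intestinal enteroid cells exposed to compound 18-24 h at 37 °C, then loaded with methyl oxonol membrane-potential dye plus CaCC blockers. Chloride transport triggered in chloride-free buffer with 10 μM forskolin, 100 μM IBMX, 300 nM Compound III; fluorescence read 15 min, expressed as % of triple-corrector/potentiator combination control.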

The target in assay [3] is T2, CFTR. Nature of the assay: Membrane Potential Dye, Enteroid Assay A. The note with it: for EC50: read-out: Ent. A EC50. In short, it runs like this:
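Primary human intestinal enteroid cells exposed to compound for 18–24 hours at 37 °C, then loaded 25 min with methyl oxonol membrane potential dye plus CaCC inhibitors. Chloride transport triggered in chloride-free buffer with 10 μM forskolin, 100 μM IBMX and 300 nM Compound III, fluorescence read 15 min; % Activity relative to a triple-combination corrector/potentiator control.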

Molecules are shown by their SMILES. Where only a bound is given, the exact number is not on record here.

By EC50 is commonly meant the concentration giving half of the maximal effect.

T2 sequence (P13569 with tags, fused parts or gaps DEL508-508): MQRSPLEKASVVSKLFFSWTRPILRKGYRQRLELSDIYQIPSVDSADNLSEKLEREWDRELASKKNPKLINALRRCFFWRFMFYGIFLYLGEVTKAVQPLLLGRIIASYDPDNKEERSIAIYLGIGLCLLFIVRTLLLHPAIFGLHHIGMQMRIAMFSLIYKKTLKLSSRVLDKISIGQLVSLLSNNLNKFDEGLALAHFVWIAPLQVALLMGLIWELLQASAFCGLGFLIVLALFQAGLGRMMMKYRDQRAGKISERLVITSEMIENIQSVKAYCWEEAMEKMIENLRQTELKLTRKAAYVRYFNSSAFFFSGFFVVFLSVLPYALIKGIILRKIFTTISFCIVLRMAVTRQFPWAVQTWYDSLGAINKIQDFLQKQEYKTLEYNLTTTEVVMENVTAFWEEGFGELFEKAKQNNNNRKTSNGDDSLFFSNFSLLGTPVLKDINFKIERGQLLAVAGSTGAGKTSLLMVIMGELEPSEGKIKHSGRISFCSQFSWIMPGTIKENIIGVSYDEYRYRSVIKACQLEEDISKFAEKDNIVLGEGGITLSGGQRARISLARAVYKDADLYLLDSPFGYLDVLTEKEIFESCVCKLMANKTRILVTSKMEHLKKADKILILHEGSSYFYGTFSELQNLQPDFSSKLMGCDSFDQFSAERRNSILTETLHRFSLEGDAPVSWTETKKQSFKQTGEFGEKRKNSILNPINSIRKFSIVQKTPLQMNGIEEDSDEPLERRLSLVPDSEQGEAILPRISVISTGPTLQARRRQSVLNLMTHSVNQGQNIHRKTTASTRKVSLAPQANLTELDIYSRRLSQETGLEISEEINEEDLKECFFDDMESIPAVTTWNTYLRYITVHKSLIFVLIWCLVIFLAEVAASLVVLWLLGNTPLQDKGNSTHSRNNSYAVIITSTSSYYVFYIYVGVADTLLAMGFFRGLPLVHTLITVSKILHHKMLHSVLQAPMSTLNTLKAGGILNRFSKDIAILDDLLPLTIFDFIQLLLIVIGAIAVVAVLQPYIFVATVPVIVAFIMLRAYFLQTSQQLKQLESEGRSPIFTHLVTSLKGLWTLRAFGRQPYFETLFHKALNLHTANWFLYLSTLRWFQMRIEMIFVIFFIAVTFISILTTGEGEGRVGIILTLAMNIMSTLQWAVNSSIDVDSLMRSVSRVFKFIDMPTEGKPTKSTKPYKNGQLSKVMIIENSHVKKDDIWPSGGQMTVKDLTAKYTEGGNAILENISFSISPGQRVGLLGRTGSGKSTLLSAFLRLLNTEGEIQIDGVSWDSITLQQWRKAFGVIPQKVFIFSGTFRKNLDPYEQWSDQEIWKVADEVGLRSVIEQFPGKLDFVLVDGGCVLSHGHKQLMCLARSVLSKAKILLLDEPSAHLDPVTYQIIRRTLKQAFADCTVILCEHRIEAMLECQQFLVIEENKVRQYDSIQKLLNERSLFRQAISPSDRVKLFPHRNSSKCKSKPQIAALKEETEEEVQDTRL
T1 sequence (P13569 with tags, fused parts or gaps DEL508-508): as above

Take `Cc1cccc(C)c1-c1cc2nc(n1)NS(=O)(=O)c1cccc(c1)C(=O)N(C1CC3(CCCN3C(=O)CO)C1)[C@H](CC(C)(C)C)CO2` (stereo in doubt) [Compound 205]: on CFTR [1], the EC50 was less than 1000 nM and the “HBE Max Activity” value is on record as “+++ (+++ is >60%)”.

Consider `Cc1cccc(C)c1-c1cc2nc(n1)NS(=O)(=O)c1cccc(c1)C(=O)N(C1CC3(CCN(c4ccccn4)CC3)C1)[C@H](CC(C)(C)C)CO2` [Compound 350], for which, at CFTR [1], the EC50 is less than 1000 nM and the “HBE Max Activity” value is “+++ (+++ is >60%)”.

Turning to `Cc1cccc(C)c1-c1cc2nc(n1)NS(=O)(=O)c1cccc(c1)C(=O)N(C1CC3(CC(N4CCOCC4)C3)C1)[C@H](CC(C)(C)C)CO2` (single isomer, unassigned) [Compound 432], at CFTR [1], the EC50 was less than 1000 nM and the “HBE Max Activity” value is on record as “+++ (+++ is >60%)”.

Regarding `Cc1cccc(C)c1-c1cc2nc(n1)NS(=O)(=O)c1cccc(c1)C(=O)N(C1CC3(CCCCN3C(=O)CO)C1)[C@H](CC(C)(C)C)CO2` (stereo in doubt) [Compound 203], the “HBE Activity at 10 μM” value on CFTR [1] is “+++ (+++ is >60%)”.

Regarding `Cc1cccc(C)c1-c1cc2nc(n1)NS(=O)(=O)c1cccc(c1)C(=O)N(C1CC3(CC(N4CCOCC4)C3)C1)[C@H](CC(C)(C)C)CO2` (stereo partly drawn) [Compound 433], on CFTR [1], the EC50 was less than 1000 nM and the “HBE Max Activity” value is on record as “+++ (+++ is >60%)”.

For `Cc1cccc(CO)c1-c1cc2nc(n1)NS(=O)(=O)c1cccc(c1)C(=O)N([C@H]1CC3(C[C@H](NC(=O)OC(C)C)C3)C1)[C@H](CC(C)(C)C)CO2` (stereo in doubt) [Compound 403], the “HBE Activity at 10 μM” value on CFTR [1] was “++ (++ is 30-60%)”.

Take `Cc1cccc(CO)c1-c1cc2nc(n1)NS(=O)(=O)c1cccc(c1)C(=O)N([C@H]1CC3(C[C@H](NC(=O)OC(C)C)C3)C1)[C@H](CC(C)(C)C)CO2` (stereo in doubt) [Compound 402]: the “HBE Activity at 10 μM” value at CFTR [1] is reported as “++ (++ is 30-60%)”.

As to `Cc1cccc(C)c1-c1cc2nc(n1)NS(=O)(=O)c1cccc(c1)C(=O)N(C1CC3(C1)CC(O)(Cc1ccccc1)C3)[C@H](CC(C)(C)C)CO2` (stereo in doubt) [Compound 430], at CFTR [1], the EC50 is less than 1000 nM and the “HBE Max Activity” value is “+++ (+++ is >60%)”.

As to `Cc1cccc(C)c1-c1cc2nc(n1)NS(=O)(=O)c1cccc(c1)C(=O)N([C@H]1C[C@@]3(CCCN(C(=O)CO)C3)C1)[C@H](CC(C)(C)C)CO2` (single isomer, unassigned) [Compound 145], on CFTR [1], the EC50 was less than 1000 nM and the “HBE Max Activity” value is “+++ (+++ is >60%)”.

In the case of `Cc1cccc(C)c1-c1cc2nc(n1)NS(=O)(=O)c1cccc(c1)C(=O)N(c1cnn(CC(N)=O)c1)[C@H](CC(C)(C)C)CO2` [Compound 426], at CFTR [1], the EC50 is 1000 to 3000 nM and the “HBE Max Activity” value is “+++ (+++ is >60%)”.

Take `Cc1cccc(C)c1-c1cc2nc(n1)NS(=O)(=O)c1cccc(c1)C(=O)N(C1CC3(CCCN3C(=O)CO)C1)[C@H](CC(C)(C)C)CO2` (stereo in doubt) [Compound 206]: at CFTR [1], the EC50 is less than 1000 nM and the “HBE Max Activity” value is reported as “+++ (+++ is >60%)”.

`Cc1cccc(C)c1-c1cc2nc(n1)NS(=O)(=O)c1cccc(c1)C(=O)N([C@H]1C[C@@H](N3CCOCC3)C1)[C@H](CC(C)(C)C)CO2` [Compound 178, (11R)-6-(2,6-Dimethylphenyl)-11-(2,2-dimethylpropyl)-12-(3-morpholinocyclobutyl)-2,2-dioxo-9-oxa-2λ^6-thia-3,5,12,19-tetrazatricyclo[12.3.1.14,8]nonadeca-1(18),4(19),5,7,14,16-hexaen-13-one]: on CFTR [1], the EC50 was less than 1000 nM and the “HBE Max Activity” value is “+++ (+++ is >60%)”.

Take `Cc1cccc(C)c1-c1cc2nc(n1)NS(=O)(=O)c1cccc(c1)C(=O)N(C1CC3(CCCCN3C(=O)CO)C1)[C@H](CC(C)(C)C)CO2` (stereo in doubt) [Compound 204]: at CFTR [1], the “HBE Activity at 10 μM” value is “+++ (+++ is >60%)”.

Regarding `Cc1cccc(C)c1-c1cc2nc(n1)NS(=O)(=O)c1cccc(c1)C(=O)N([C@H]1C[C@@]3(C[C@H](NCC(F)(F)F)C3)C1)[C@H](CC1(C(F)(F)F)CC1)CO2` (stereo in doubt) [Compound 220], at CFTR [1], the EC50 is less than 1000 nM and the “HBE Max Activity” value is recorded as “+++ (+++ is >60%)”.

Take `Cc1cccc(C)c1-c1cc2nc(n1)NS(=O)(=O)c1cccc(c1)C(=O)N([C@H]1C[C@@]3(CCCN(C(=O)CO)C3)C1)[C@H](CC(C)(C)C)CO2` (single isomer, unassigned) [Compound 144]: on CFTR [1], the EC50 was less than 1000 nM and the “HBE Max Activity” value is on record as “+++ (+++ is >60%)”.

As for `Cc1cccc(C)c1-c1cc2nc(n1)NS(=O)(=O)c1cccc(c1)C(=O)N(C1CC3(CCNCC3)C1)[C@H](CC(C)C)CO2` [Compound 14, (11R)-12-(7-Azaspiro[3.5]nonan-2-yl)-6-(2,6-dimethylphenyl)-11-isobutyl-2,2-dioxo-9-oxa-2λ^6-thia-3,5,12,19-tetrazatricyclo[12.3.1.14,8]nonadeca-1(18),4(19),5,7,14,16-hexaen-13-one], at CFTR [2], the “Ent. B Max Activity (%)” value is “+++ (+++ is >60%)” and the concentration giving a half-maximal response (EC50) was less than 1000 nM. For the same molecule, at CFTR [3], the “Ent. A Max Activity (%)” value was “+++ (+++ is >60%)” and the EC50 was in the range of 3000 to 30000 nM.

For the molecule `CCOC(=O)N1CCC2(CC1)CC(N1C(=O)c3cccc(c3)S(=O)(=O)Nc3nc(cc(-c4c(C)cccc4C)n3)OC[C@H]1CC(C)C)C2` [Compound 315], on CFTR [2], the “Ent. B Max Activity (%)” value is listed as “+++ (+++ is >60%)” and the EC50 was less than 1000 nM. On CFTR [3], the “Ent. A Max Activity (%)” value is given as “+++ (+++ is >60%)” and the EC50 was less than 1000 nM.

Turning to `Cc1cccc(C)c1-c1cc2nc(n1)NS(=O)(=O)c1cccc(c1)C(=O)N(C1CN(C(=O)OC(C)(C)C)C1)[C@H](CC(C)C)CO2` [Compound 334], on CFTR [2], the “Ent. B Max Activity (%)” value is reported as “++ (++ is 30-60%)” and the EC50 was less than 1000 nM. For the same molecule, on CFTR [3], the “Ent. A Max Activity (%)” value was “+++ (+++ is >60%)” and the EC50 was less than 1000 nM.

`Cc1cccc(C)c1-c1cc2nc(n1)NS(=O)(=O)c1cccc(c1)C(=O)N([C@H]1C[C@@H](C#N)C1)[C@H](CC(C)C)CO2` (stereo in doubt) [Compound 469]: at CFTR [2], the “Ent. B Max Activity (%)” value is “+++ (+++ is >60%)” and the EC50 is less than 1000 nM. On CFTR [3], the “Ent. A Max Activity (%)” value was “+++ (+++ is >60%)” and the EC50 is less than 1000 nM.

Take `Cc1cccc(C)c1-c1cc2nc(n1)NS(=O)(=O)c1cccc(c1)C(=O)N([C@H]1CC3(C[C@H](C(=O)N(C)C)C3)C1)[C@H](CC(C)C)CO2` (stereo partly drawn) [Compound 343]: on CFTR [2], the “Ent. B Max Activity (%)” value is reported as “+++ (+++ is >60%)” and the EC50 was less than 1000 nM. Further, on CFTR [3], the “Ent. A Max Activity (%)” value was “+++ (+++ is >60%)” and the EC50 is less than 1000 nM.

As to `Cc1cccc(C)c1-c1cc2nc(n1)NS(=O)(=O)c1cccc(n1)C(=O)N(C1CC3(CC3)C1)[C@H](CC(C)(C)C)CO2` [Compound 401], on CFTR [2], the “Ent. B Max Activity (%)” value is “+++ (+++ is >60%)” and the EC50 is less than 1000 nM. At CFTR [3], the “Ent. A Max Activity (%)” value was “+++ (+++ is >60%)” and the EC50 was less than 1000 nM.

Consider `Cc1cccc(C)c1-c1cc2nc(n1)NS(=O)(=O)c1cccc(c1)C(=O)N(C1CC3(CCN(C)CC3)C1)[C@H](CC(C)C)CO2` [Compound 15, (11R)-6-(2,6-Dimethylphenyl)-11-isobutyl-12-(7-methyl-7-azaspiro[3.5]nonan-2-yl)-2,2-dioxo-9-oxa-2λ^6-thia-3,5,12,19-tetrazatricyclo[12.3.1.14,8]nonadeca-1(18),4(19),5,7,14,16-hexaen-13-one], for which, at CFTR [2], the “Ent. B Max Activity (%)” value was “+++ (+++ is >60%)” and the EC50 was less than 1000 nM. On CFTR [3], the “Ent. A Max Activity (%)” value is “+++ (+++ is >60%)” and the EC50 was less than 1000 nM.

For the origin of these results see patent US20230382925A1, “MODULATORS OF CYSTIC FIBROSIS TRANSMEMBRANE CONDUCTANCE REGULATOR” (VERTEX PHARMACEUTICALS INCORPORATED, priority 2020, published 2023).
